Measured values reported in patent publication US8278066B2, “Truncated somatostatin receptors” (Board of Regents, The University of Texas System, priority 2001, dated 2012).

How the values were obtained:
[1] = molecular target: full length SSTR2A fusion protein (HT1080 clones 21, 3, 11) (Homo sapiens, UniProt P30874)
[2] = molecular target: intracellular tail minus SSTR2A fusion protein (HT1080 clones tail-1, tail-4) (Homo sapiens, UniProt P30874)
Chain of intracellular tail minus SSTR2A fusion protein (HT1080 clones tail-1, tail-4) (P30874 1-314): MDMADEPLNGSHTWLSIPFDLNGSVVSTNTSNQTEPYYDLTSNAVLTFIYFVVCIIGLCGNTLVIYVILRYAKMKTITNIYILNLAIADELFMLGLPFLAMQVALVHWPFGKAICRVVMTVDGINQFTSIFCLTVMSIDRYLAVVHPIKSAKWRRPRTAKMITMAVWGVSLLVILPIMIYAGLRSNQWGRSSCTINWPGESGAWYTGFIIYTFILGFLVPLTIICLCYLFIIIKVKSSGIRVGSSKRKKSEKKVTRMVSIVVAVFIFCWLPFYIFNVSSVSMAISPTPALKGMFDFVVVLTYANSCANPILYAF

Chain of full length SSTR2A fusion protein (HT1080 clones 21, 3, 11) (P30874 whole entry, the tested form may be a part): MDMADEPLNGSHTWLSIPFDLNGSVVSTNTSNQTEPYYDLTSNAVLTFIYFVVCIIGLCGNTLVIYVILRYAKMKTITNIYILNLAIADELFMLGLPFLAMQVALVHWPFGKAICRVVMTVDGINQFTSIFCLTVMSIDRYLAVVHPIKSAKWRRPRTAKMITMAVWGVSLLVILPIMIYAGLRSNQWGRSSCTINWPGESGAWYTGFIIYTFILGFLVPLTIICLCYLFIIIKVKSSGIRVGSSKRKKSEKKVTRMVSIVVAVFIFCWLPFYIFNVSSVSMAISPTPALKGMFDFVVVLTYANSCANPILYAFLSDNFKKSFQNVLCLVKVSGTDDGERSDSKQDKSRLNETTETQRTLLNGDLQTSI

Substance: ^111In-octreotide
- Specific binding, order among clones [1]: greater for clone 21 than 3 than 11
- counts per minute bound [1]: more counts per minute without the addition of cold somastotin-28 then with its addition
- counts per minute bound [2]: more counts per minute without the addition of cold somastotin-28 then with its addition
